Ki data for 35 compounds are collected here from patent US8759390B2, “Chromene modulators of chemokine receptor activity” (Bristol-Myers Squibb Company, priority 2008, dated 2014).

In general, Ki refers to a dissociation constant, usually derived from enzyme kinetics or from competition with a known ligand. Read a high Ki as lower affinity.

Molecules are shown by their SMILES. Counter-ions that a name gives are not always drawn.

The assay addresses T1, CCR2 (Homo sapiens, UniProt P41597).
T1 construct: THP-1 human monocytic leukemic cell line, which expresses endogenous CCR2; endogenous in cells; host or cells: THP-1 human monocytic leukemia cells, or human PBMC / human monocytes
T1 sequence (P41597 1-360 isoform P41597-2): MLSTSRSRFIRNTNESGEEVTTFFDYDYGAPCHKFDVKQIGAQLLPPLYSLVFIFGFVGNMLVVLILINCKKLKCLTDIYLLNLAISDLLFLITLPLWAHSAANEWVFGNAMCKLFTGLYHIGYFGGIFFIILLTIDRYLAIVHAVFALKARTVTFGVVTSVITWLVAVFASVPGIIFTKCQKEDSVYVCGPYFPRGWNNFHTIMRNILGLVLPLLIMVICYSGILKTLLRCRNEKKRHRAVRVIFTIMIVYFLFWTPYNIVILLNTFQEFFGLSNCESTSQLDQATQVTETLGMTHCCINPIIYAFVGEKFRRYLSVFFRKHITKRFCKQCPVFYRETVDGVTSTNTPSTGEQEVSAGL
Description: CCR2 binding (125I-human MCP-1 competition on human PBMC / THP-1 cells). As to conditions: n = 1 unless otherwise noted; tested in one of the assays described. As to the method:
Antagonism of MCP-1 Binding to Human PBMC
Millipore filter plates (#MABVN1250) are treated with 100 μl of binding buffer (0.5% bovine serum albumin, 20 mM HEPES buffer and 5 mM magnesium chloride in RPMI 1640 media) for thirty minutes at room temperature. To measure binding, 50 μl of binding buffer, with or without a known concentration compound, is combined with 50 μl of ^125-I labeled human MCP-1 (to give a final concentration of […] radioligand) and 50 μl of binding buffer containing 5×10^5 cells. Cells used for such binding assays can include human peripheral blood mononuclear cells isolated by Ficoll-Hypaque gradient centrifugation, human monocytes (Weiner et al., J. Immunol. Methods. 1980, 36, 89), or the THP-1 cell line which expresses the endogenous receptor. The mixture of compound, cells and radioligand are incubated at room temperature for thirty minutes. Plates are placed onto a vacuum manifold, vacuum applied, and the plates washed three times with binding buffer containing 0.5M NaCl. The plastic skirt is removed from the plate, the plate allowed to air dry, the wells punched out and counted. The percent inhibition of binding is calculated using the total counts obtained in the absence of any competing compound and the background binding determined by addition of 100 nM MCP-1 in place of the test compound.
THP-1 Monocytic Cell Binding: Whole Cell-Based Assay
The human CCR2 binding assay was also established with the THP-1 human monocytic leukemic cell line, which expresses endogenous CCR2, using ^125I-human MCP-1 as the tracer ligand. Radioligand competition binding assays were used for assessment of binding affinity of test compounds to the CCR2 receptor. For radioligand competition studies, 100 μl containing 2.5×10^5 THP-1 cells/well (in assay buffer containing 50 mM HEPES, pH7.4, 5mM MgCl2, 1 mM CaCl2 and 0.5% BSA) were added to 96-well assay plates containing the test compounds in 3-fold serial dilution, with final concentrations ranging from 5 μM to […]. Subsequently, 50 μl ^125I-MCP-1 radioligand at a final concentration of 0.2 nM in assay buffer were added to the reaction. After a 90 minute incubation period at room temperature, the binding reaction was terminated by harvesting on GF/B filter plates (PerkinElmer Cat. No. 6005177) followed by washing with ice-cold wash buffer (50 mM HEPES, pH 7.4, 0.1% BSA, 0.5 M NaCl) to remove unbound ligand. After washing, the plate was dried for 45 minutes at 60° C. followed by addition of 40 μl MicroScint 20 scintillation fluid, sealed and analyzed by the Packard TopCount reader. Non-specific binding was determined in the presence of 10 μM (a molar excess of […]) of an in-house CCR2 small molecule antagonist (CCR2 IC50=2 nM). Specific binding of ^125I-MCP-1 was calculated as the difference between total and non-specific binding. The competition data was plotted as a percentage inhibition of radioligand specific bound in the absence of test compound (percent of total signal). After correcting for non-specific binding, IC50 values were determined The IC50 is defined as the concentration of test compound required to reduce ^125I-MCP-1 specific binding by 50% and was calculated using the four parameter logistic equation to fit the normalized data.
In turn, `O=C(O)C1=Cc2ccccc2OC1c1cccc(Cl)c1` (racemic) [Example 1, 2-(3-chlorophenyl)-2H-chromene-3-carboxylic acid] displayed a Ki of 2 µM.

`O=C(O)C1=Cc2ccccc2OC1c1ccc(Cl)c(C(F)(F)F)c1` (racemic) [Example 2-1, 2-(4-chloro-3-(trifluoromethyl)phenyl)-2H-chromene-3-carboxylic acid] came in with an inhibition constant Ki of 0.075 µM.

For `O=C(O)C1=Cc2ccccc2OC1c1ccc(Cl)cc1` (racemic) [Example 2-2, 2-(4-chlorophenyl)-2H-chromene-3-carboxylic acid], affinity was put at a Ki of 0.95 µM.

`COc1ccc(C2Oc3ccccc3C=C2C(=O)O)cc1` (racemic) [Example 2-3, 2-(4-methoxyphenyl)-2H-chromene-3-carboxylic acid] registered a Ki of 5.3 µM.

Take `O=C(O)C1=Cc2ccccc2OC1c1cc(Cl)cc(Cl)c1` (racemic) [Example 2-4, 2-(3,5-dichlorophenyl)-2H-chromene-3-carboxylic acid]: the Ki is 4.5 µM.

`O=C(O)C1=Cc2ccccc2OC1c1ccc2c(c1)OCO2` (racemic) [Example 3, 2-(benzo[d][1,3]dioxol-5-yl)-2H-chromene-3-carboxylic acid] registered a Ki of 1.1 µM.

The compound `CC1(c2ccc(Cl)c(Cl)c2)Oc2ccccc2C=C1C(=O)O` (racemic) [Example 4-1, 2-(3,4-dichlorophenyl)-2-methyl-2H-chromene-3-carboxylic acid] registered a Ki of 0.22 µM.

As for `CCC1(c2ccc(Cl)c(Cl)c2)Oc2ccccc2C=C1C(=O)O` (racemic) [Example 4-2, 2-(3,4-dichlorophenyl)-2-ethyl-2H-chromene-3-carboxylic acid], the Ki was determined as 1.2 µM.

In the case of `O=C(O)C1=Cc2ccccc2OC1c1ccc(Cl)c(Cl)c1` (racemic) [Example 5-1, 2-(3,4-dichlorophenyl)-2H-chromene-3-carboxylic acid], the affinity corresponds to a Ki of 0.14 µM.

The compound `O=C(O)C1=Cc2ccccc2OC1c1ccc(Cl)c2ccccc12` (racemic) [Example 5-2, 2-(4-chloronaphthalen-1-yl)-2H-chromene-3-carboxylic acid] yielded a Ki of 1.9 µM.

Take `O=C(O)C1=Cc2ccccc2OC1c1ccncc1` (racemic) [Example 5-3, 2-(pyridin-4-yl)-2H-chromene-3-carboxylic acid trifluoroacetic acid salt]: the affinity, expressed as Ki, was 1.8 µM.

In turn, `O=C(O)C1=Cc2ccccc2OC1c1ccc2ccccc2c1` (racemic) [Example 5-4, 2-(naphthalen-2-yl)-2H-chromene-3-carboxylic acid] gave a Ki of 1.8 µM.

On to `O=C(O)C1=Cc2ccccc2OC1c1cccc2ccccc12` (racemic) [Example 5-5, 2-(naphthalen-1-yl)-2H-chromene-3-carboxylic acid], for which the affinity corresponds to a Ki of 1.7 µM.

Compound `O=C(O)C1=Cc2ccccc2OC1c1cccc(F)c1` (racemic) [Example 5-6, 2-(3-fluorophenyl)-2H-chromene-3-carboxylic acid] gave a Ki of 5.7 µM.

The compound `O=C(O)C1=Cc2ccccc2OC1c1ccc(Cl)c(F)c1` (racemic) [Example 5-7, 2-(3-fluoro-4-chlorophenyl)-2H-chromene-3-carboxylic acid] showed a Ki of 0.29 µM.

`O=C(O)C1=Cc2ccccc2OC1c1ccc(F)c(Cl)c1` (racemic) [Example 5-8, 2-(3-chloro-4-fluorophenyl)-2H-chromene-3-carboxylic acid] registered an inhibitory constant (Ki) of 0.56 µM.

`O=C(O)C1=Cc2ccccc2OC1c1cccc(C(F)(F)F)c1` (racemic) [Example 5-9, 2-(3-trifluoromethylphenyl)-2H-chromene-3-carboxylic acid] registered an inhibition constant Ki of 1.6 µM.

Consider `O=C(O)C1=Cc2ccccc2OC1c1ccc(C(F)(F)F)cc1` (racemic) [Example 5-10, 2-(4-trifluoromethylphenyl)-2H-chromene-3-carboxylic acid], for which the Ki turned out to be 0.92 µM.

As for `O=C(O)C1=Cc2ccccc2OC1c1ccc(F)c(F)c1` (racemic) [Example 5-11, 2-(3,4-difluorophenyl)-2H-chromene-3-carboxylic acid], affinity was put at a Ki of 8.6 µM.

Turning to `O=C(O)C1=Cc2ccccc2OC1c1cccc([N+](=O)[O-])c1` (racemic) [Example 5-12, 2-(3-nitrophenyl)-2H-chromene-3-carboxylic acid], the Ki turned out to be 2.8 µM.

`O=C(O)C1=Cc2ccccc2OC1c1ccc(Cl)c([N+](=O)[O-])c1` (racemic) [Example 5-13, 2-(3-nitro-4-chlorophenyl)-2H-chromene-3-carboxylic acid] yielded a Ki of 0.23 µM.

The compound `Cc1cc(C2Oc3ccccc3C=C2C(=O)O)ccc1Cl` (racemic) [Example 5-14, 2-(3-methyl-4-chlorophenyl)-2H-chromene-3-carboxylic acid] returned an inhibitory constant (Ki) of 0.16 µM.

Regarding `O=C(O)C1=Cc2ccccc2OC1c1ccc(Br)cc1` (racemic) [Example 5-15, 2-(4-bromophenyl)-2H-chromene-3-carboxylic acid], the Ki worked out at 0.43 µM.

For the compound `O=C(O)C1=Cc2ccccc2OC1c1cccc(Br)c1` (racemic) [Example 5-16, 2-(3-bromophenyl)-2H-chromene-3-carboxylic acid], the Ki worked out at 1.7 µM.

Consider `O=C(O)C1=Cc2ccccc2OC1c1ccc(Br)c(Br)c1` (racemic) [Example 5-17, 2-(3,4-dibromophenyl)-2H-chromene-3-carboxylic acid], for which affinity was put at a Ki of 0.085 µM.

`O=C(O)C1=Cc2ccccc2OC1c1ccc(C(F)(F)F)c(F)c1` (racemic) [Example 5-18, 2-(3-fluoro-4-trifluoromethylphenyl)-2H-chromene-3-carboxylic acid] had a Ki of 0.72 µM.

Turning to `Cc1ccc(C2Oc3ccccc3C=C2C(=O)O)cc1` (racemic) [Example 5-19, 2-(4-methylphenyl)-2H-chromene-3-carboxylic acid], the affinity, expressed as Ki, was 4.5 µM.

The compound `Cc1cccc(C2Oc3ccccc3C=C2C(=O)O)c1` (racemic) [Example 5-20, 2-(3-methylphenyl)-2H-chromene-3-carboxylic acid] displayed a Ki of 4.2 µM.

With `O=C(O)C1=Cc2ccccc2OC1c1ccccn1` (racemic) [Example 5-21, 2-(pyridin-2-yl)-2H-chromene-3-carboxylic acid], the affinity, expressed as Ki, was 1.4 µM.

Turning to `O=C(O)C1=Cc2ccccc2OC1c1ccc2ccccc2n1` (racemic) [Example 5-22, 2-(quinolin-2-yl)-2H-chromene-3-carboxylic acid], the Ki came out at 2.1 µM.

Regarding `O=C(O)C1=Cc2ccccc2OC1c1cnc2ccccc2c1` (racemic) [Example 5-23, 2-(quinolin-3-yl)-2H-chromene-3-carboxylic acid], the Ki was determined as 4.3 µM.

Consider `O=C(O)C1=Cc2ccccc2OC1c1ccc(F)c(C(F)(F)F)c1` (racemic) [Example 5-24, 2-(3-trifluoromethyl-4-fluoro-phenyl)-2H-chromene-3-carboxylic acid], for which the affinity, expressed as Ki, was 1.1 µM.

For `O=C(O)C1=Cc2ccccc2OC1c1cccc(C(F)(F)F)n1` (racemic) [Example 5-25, 2-(6-trifluoromethyl-pyridin-2-yl)-2H-chromene-3-carboxylic acid], the affinity corresponds to a Ki of 8.3 µM.

As for `O=C(O)C1=Cc2ccccc2OC1c1cccc(Cl)c1Cl` (racemic) [Example 5-26, 2-(2,3-dichlorophenyl)-2H-chromene-3-carboxylic acid], the affinity corresponds to a Ki of 2.6 µM.

As to `COc1cc(C2Oc3ccccc3C=C2C(=O)O)ccc1Cl` (racemic) [Example 7-1, 2-(3-methoxy-4-chlorophenyl)-2H-chromene-3-carboxylic acid], the affinity, expressed as Ki, was 2.9 µM.
